Measured values from the supplement of paper PMC10307832.

What was measured:
Assay in all cases: relative viability (nuclei count vs DMSO), 5 days (fraction); higher = more cells survive
[1] = compound: CCCS(=O)(=O)Nc1ccc(F)c(C(=O)c2c[nH]c3ncc(-c4ccc(Cl)cc4)cc23)c1F [Vemurafenib] + C[C@@H](Oc1cc(-c2cnn(C3CCNCC3)c2)cnc1N)c1c(Cl)ccc(F)c1Cl [Crizotinib] (partner 1 µM)
Procedure, shortened: (§1)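 Relative viability is defined as nuclei in treated wells over nuclei in vehicle wells. Duplicate plates were run and medians reported. Lung cancer cell lines in 1536-well plates were dosed by pin tool one day after seeding, with one drug or with a fixed anchor-drug dose plus five library-drug doses (not always all listed) in √10 steps, and nuclei were counted after 5 days.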

[2] = compound: Cc1nc(NC(=O)N2CCC[C@H]2C(N)=O)sc1-c1ccnc(C(C)(C)C(F)(F)F)c1 [Alpelisib] + CC1(C)CCC(c2ccc(Cl)cc2)=C(CN2CCN(c3ccc(C(=O)NS(=O)(=O)c4ccc(N[C@H](CCN5CCOCC5)CSc5ccccc5)c(S(=O)(=O)C(F)(F)F)c4)cc3)CC2)C1 [Navitoclax] (partner 0.5 µM)
Procedure, shortened: as §1

[3] = compound: Cc1nc(NC(=O)N2CCC[C@H]2C(N)=O)sc1-c1ccnc(C(C)(C)C(F)(F)F)c1 [Alpelisib] + Cc1nc(Nc2ncc(C(=O)Nc3c(C)cccc3Cl)s2)cc(N2CCN(CCO)CC2)n1 [Dasatinib] (partner 0.075 µM)
Procedure, shortened: as §1

[4] = compound: Cc1nc(NC(=O)N2CCC[C@H]2C(N)=O)sc1-c1ccnc(C(C)(C)C(F)(F)F)c1 [Alpelisib] + CCNC(=O)c1noc(-c2cc(C(C)C)c(O)cc2O)c1-c1ccc(CN2CCOCC2)cc1 [Luminespib] (partner 0.01 µM)
Procedure, shortened: as §1

Row | Cell Line | relative viability ([1]; first compound 0.03162 µM) | relative viability ([1]; first compound 0.1 µM) | relative viability ([1]; first compound 1 µM) | relative viability ([2]; first compound 0.04 µM) | relative viability ([2]; first compound 0.1265 µM) | relative viability ([2]; first compound 0.4 µM) | relative viability ([2]; first compound 1.265 µM) | relative viability ([2]; first compound 4 µM) | relative viability ([3]; first compound 0.04 µM) | relative viability ([3]; first compound 0.1265 µM) | relative viability ([3]; first compound 0.4 µM) | relative viability ([3]; first compound 1.265 µM) | relative viability ([3]; first compound 4 µM) | relative viability ([1]; first compound 0.3162 µM) | relative viability ([4]; first compound 0.04 µM) | relative viability ([4]; first compound 0.1265 µM) | relative viability ([4]; first compound 0.4 µM) | relative viability ([4]; first compound 1.265 µM) | relative viability ([4]; first compound 4 µM)
1 | HCC-366 | 0.465 | 0.468 | 0.412 | 1.02 | 1.08 | 1.05 | 0.681 | 0.334 | 0.556 | 0.596 | 0.427 | 0.34 | 0.207 |  |  |  |  |  | 
2 | HCC-827 | 0.825 |  | 0.863 | 1 | 1.02 | 1.06 | 1.01 | 0.908 | 0.378 | 0.427 | 0.296 | 0.234 | 0.233 | 0.924 | 0.703 | 0.594 | 0.586 | 0.406 | 0.215
3 | HOP-62 | 0.905 | 0.987 | 0.862 | 1 | 0.893 | 1.12 | 0.606 | 1.06 | 0.608 | 0.598 | 0.755 | 0.539 | 0.531 | 0.94 | 0.943 | 0.957 | 1.04 | 0.83 | 0.956
4 | IA-LM | 0.694 | 0.916 | 0.422 | 0.894 | 0.727 | 0.736 | 0.628 | 0.718 |  |  |  |  |  | 1.1 |  |  |  |  | 
5 | LC-2-ad | 0.315 | 0.461 | 0.392 | 0.441 | 0.394 | 0.364 | 0.332 | 0.285 | 0.596 | 0.448 | 0.63 | 0.23 | 0.225 | 0.377 | 0.985 | 0.97 | 1.3 | 0.846 | 0.827
6 | LCLC-97TM1 | 0.287 | 0.246 | 0.278 | 0.411 | 0.371 | 0.33 | 0.206 | 0.142 | 0.843 | 0.75 | 0.855 | 0.641 | 0.566 | 0.301 | 0.852 | 0.707 | 0.705 | 0.279 | 0.23
7 | LCLC-103H | 1.06 | 1.06 | 1.09 |  |  |  |  |  | 0.45 | 0.442 | 0.468 | 0.418 | 0.359 | 1.01 | 0.97 | 0.993 | 1.04 | 0.72 | 0.735
8 | LK-2 | 0.193 | 0.202 | 0.245 | 0.751 | 0.72 | 0.697 | 0.374 | 0.507 | 0.327 | 0.287 | 0.257 | 0.185 | 0.186 | 0.208 | 0.139 | 0.159 | 0.196 | 0.191 | 0.176
9 | LOU-NH91 | 0.691 | 0.515 | 0.752 | 0.707 | 0.637 | 0.526 | 0.504 | 0.343 | 0.478 | 0.482 | 0.482 | 0.452 | 0.34 |  | 0.239 | 0.266 | 0.311 | 0.247 | 0.27
10 | LU99A | 0.531 | 0.489 | 0.526 | 0.785 | 0.716 | 0.773 | 0.546 | 0.426 | 0.446 | 0.482 | 0.554 | 0.409 | 0.379 | 0.516 | 0.298 | 0.216 | 0.249 | 0.226 | 0.247
11 | NCI-H358 | 0.619 |  | 0.528 |  |  |  |  |  | 0.157 | 0.176 | 0.164 | 0.112 | 0.121 | 0.72 | 0.29 | 0.23 | 0.32 | 0.252 | 0.215
12 | NCI-H522 |  |  |  |  |  |  |  |  | 0.952 | 0.772 | 0.786 | 0.709 | 0.647 |  | 1.09 | 1.21 | 1.13 | 0.881 | 0.981
13 | NCI-H650 | 0.705 | 0.72 | 0.581 |  |  |  |  |  | 0.417 | 0.38 | 0.449 | 0.395 | 0.288 | 0.418 | 0.752 | 0.744 | 0.985 | 0.559 | 0.664
14 | NCI-H661 | 0.819 | 1.07 | 0.949 |  |  |  |  |  | 0.845 | 0.745 | 0.8 | 0.569 | 0.526 |  | 0.979 | 0.969 | 1.02 | 0.928 | 0.968
15 | NCI-H1299 | 0.951 | 0.929 | 0.94 | 1.05 | 1.05 | 1.07 | 1.01 | 1.02 |  |  |  |  |  | 0.9 |  |  |  |  | 
16 | NCI-H1395 |  |  |  | 1.18 | 1.12 | 1.45 | 0.984 | 0.927 | 0.461 | 0.376 | 0.457 | 0.356 | 0.394 |  | 0.568 | 0.663 | 0.755 | 0.604 | 0.724
17 | NCI-H1563 | 0.825 | 0.744 | 0.852 |  |  |  |  |  | 0.474 | 0.395 | 0.434 | 0.386 | 0.375 | 0.823 | 0.488 | 0.479 | 0.404 | 0.503 | 0.462
18 | NCI-H1623 |  |  |  |  |  |  |  |  | 0.528 | 0.496 | 0.513 | 0.414 | 0.353 |  | 0.487 | 0.374 | 0.477 | 0.385 | 0.417
19 | NCI-H1703 | 0.605 | 0.449 | 0.593 | 1.01 | 0.994 | 0.71 | 0.565 | 0.464 |  |  |  |  |  | 0.453 |  |  |  |  | 
20 | NCI-H1793 |  |  |  | 0.419 | 0.335 | 0.356 | 0.376 | 0.365 | 0.299 | 0.379 | 0.525 | 0.356 | 0.351 |  | 0.194 | 0.177 | 0.154 | 0.165 | 0.179
21 | NCI-H2342 |  |  |  |  |  |  |  |  | 0.327 | 0.313 | 0.306 | 0.269 | 0.272 |  | 0.762 | 0.696 | 0.686 | 0.568 | 0.488
22 | SW 900 |  |  |  |  |  |  |  |  | 0.534 | 0.58 | 0.612 | 0.578 | 0.518 |  | 0.163 | 0.168 | 0.177 | 0.138 | 0.173
